Experiments:
[1] = system: GluR1 subunit of AMPA receptors; assay: Surface GluR1 ELISA in rat cortical cells; assay type: cell-based
Description: (§1) Briefly, the MG87.TRKB cells or primary cortical cells from rat or mouse embryos, cultivated in clear bottom 96-well plates (ViewPlate 96, Perkin Elmer), were washed with ice-cold PBS and fixed with 100μl of 4% PFA per well. […] Following washing, the samples were incubated with HRP-conjugated anti-goat or anti-rabbit IgG (1:5000 in blocking buffer) for 1h at RT. The cells were washed 4x with 200μl of PBS for 10 min each. Finally, the chemiluminescent signal generated by reaction with ECL was analyzed in a plate reader.

[2] = system: TRKB:PLC-γ1 interaction; assay: TRKB:PLC-γ1 interaction ELISA in cortical cells; assay type: cell-based, rat; settings: rat cortical cells
Description: The TRKB:pY (phosphorylated TRKB), TRKB:PLC-γ1, PLC-γ1:pTRKB.Y816 interactions and were determined by ELISA, based on the general method described in literature ([Antila et al., 2014]; [Fred et al., 2019]), with minor adjustments. Briefly, white 96-well plates (OptiPlate 96F-HB, Perkin Elmer) were coated with capturing anti-TRKB or PLC-γ1 antibody (1:1000) in carbonate buffer (pH = 9.8) overnight (ON) at 4°C. Following a blocking step with 2%BSA in TBS-T (2 h, RT), samples were incubated ON at 4°C. The incubation with antibody against pTRKB.Y816, PLC-γ1 or pY (1:2000, ON, 4°C) was followed by HRP-conjugated anti-Rb IgG (1:5000, 2h, RT) or HRP-conjugated streptavidin (1:10000, 2h, RT). Finally, the chemiluminescent signal generated by the reaction with ECL was analyzed in a plate reader (Varioskan Flash, Thermo Scientific).

[3] = molecular target: T1, TRKB (Mus musculus, UniProt P15209); assay: Cell-free ligand binding assay on immobilised TRKB from HEK293T lysates; parameters: wild-type GFP-tagged full length TRKB or the GFP-tagged Y433F TRKB mutant; host or cells: HEK293T; settings: biotinylated FLX 1 μM
T1 sequence (P15209 32-821): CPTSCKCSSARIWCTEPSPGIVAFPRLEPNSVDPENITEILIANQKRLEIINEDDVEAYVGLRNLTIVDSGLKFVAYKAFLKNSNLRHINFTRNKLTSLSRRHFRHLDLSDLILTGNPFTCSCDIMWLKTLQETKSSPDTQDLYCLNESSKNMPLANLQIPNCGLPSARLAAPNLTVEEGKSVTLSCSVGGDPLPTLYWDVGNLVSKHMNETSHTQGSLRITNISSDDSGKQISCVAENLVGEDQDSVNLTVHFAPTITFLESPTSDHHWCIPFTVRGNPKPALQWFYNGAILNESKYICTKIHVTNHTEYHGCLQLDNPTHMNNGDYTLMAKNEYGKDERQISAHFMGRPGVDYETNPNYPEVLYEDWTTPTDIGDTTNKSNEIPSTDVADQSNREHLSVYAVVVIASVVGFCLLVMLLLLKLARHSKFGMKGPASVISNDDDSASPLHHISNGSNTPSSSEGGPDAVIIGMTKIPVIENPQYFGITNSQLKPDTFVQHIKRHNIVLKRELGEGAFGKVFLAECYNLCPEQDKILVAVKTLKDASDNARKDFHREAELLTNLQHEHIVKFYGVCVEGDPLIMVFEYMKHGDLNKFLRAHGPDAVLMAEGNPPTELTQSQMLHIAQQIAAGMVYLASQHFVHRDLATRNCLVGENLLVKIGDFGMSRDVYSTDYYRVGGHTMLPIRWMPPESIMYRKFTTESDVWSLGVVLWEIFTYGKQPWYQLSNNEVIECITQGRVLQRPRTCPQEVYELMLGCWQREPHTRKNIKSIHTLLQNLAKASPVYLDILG
Description: (§2) The cell-free assays (binding assays) were performed in white 96-well plates, based on the protocol used for western-blotting or ELISA ([Baeza-Raja et al., 2016]; [Das et al., 2015]). The plates were precoated with anti-GFP, anti-FLAG, anti-TRK or anti-TRKB antibody (1:1000) in carbonate buffer (pH 9.8), ON at 4°C. Following blocking with 3% BSA in PBS buffer (2 h at RT), 120 ug of total protein from each sample (of lysates from HEK293T cells transfected to overexpress GFP-TRKB.wt or GFP-TRKB.Y433F) were added and incubated overnight at 4°C under agitation. […] The luminescence was determined via HRP-conjugated streptavidin (1:10000, 1h, RT) activity reaction with ECL by a plate reader. The luminescence signal from blank wells (containing all the reagents but the sample lystates, substituted by the blocking buffer) was used as background. The specific signal was then calculated by subtracting the values of blank wells from the values of the samples with matched concentration of the biotinylated ligand. For Figure 2E, the precipitated TRKB.wt or Y433F was incubated with tritiated imipramine (0-30μM) and the radioactive emission of the ligand was determined by scintillation (OptiPhase Supermix cocktail: #1200-439; MicroBeta2, Perkin-Elmer). The scintillation signal from blank wells was used as background, and the specific signal was then calculated by subtracting the values of blank wells from the values of the samples with matched concentration of the radioactive ligand.

[4] = system: GluR1 subunit of AMPA receptors; assay: Surface GluR1 ELISA in cortical cells of TRKB.Y433F mice; assay type: cell-based, mouse
Description: as §1

[5] = system: NMDA receptors; parameters: method as in Zanos et al., 2016, 2018; settings: ref Zanos et al., 2016, 2018; cited from earlier work
[6] = molecular target: T2, TRKB.Y433F (Mus musculus, UniProt P15209, Y433F); assay: Cell-free ligand binding assay, TRKB.Y433F mutant; settings: tritiated imipramine, biotinylated R,R-HNK
T2 construct: wild-type GFP-tagged full length TRKB or the GFP-tagged Y433F TRKB mutant; host or cells: HEK293T
T2 sequence (P15209 32-821 Y433F): as the sequence (P15209 32-821) above, with Y402F counted along it
Description: as §2

[7] = system: mice; assay: Ocular dominance plasticity (monocular deprivation, intrinsic signal imaging); assay type: in vivo, mouse
Description: The “transparent skull” preparation was executed as described in literature ([Steinzeig et al., 2017]). Briefly, adult female mice (20-22 weeks old) were anesthetized via i.p. injection with a mixture containing: 0.05 mg/kg fentanyl (Hameln, Germany); 5 mg/kg midazolam (Hameln, Germany); 0.5 mg/kg medetomidine (Orion Pharma, Finland); diluted in saline (B Braun, Germany). The animals’ eyes were covered with protective-gel (Alcon, UK). The animal’s head was shaved and disinfected with ethanol and Betadine. The mouse head was then fixed on the stereotaxic frame and the temperature was maintained at 37°C. A mixture of lidocaine and adrenaline (Orion Pharma, Finland) was applied locally on the head and the skin was cut with spring scissors. The incision area was restricted 2 mm above the bregma and caudal edge of intraparietal bone. The scalp was removed and a focused air stream and a cotton swab were used to clean and stop bleeding. The periosteum was gently scratched away from the skull with an eye scalpel and the temporal muscles were pushed aside, in order to expose enough space around the area of interest to attach the metal holder. When the skull was smooth, white and dry, fat was removed from the skull rapidly by passing on it a cotton swab soaked in acetone and the air current was used to avoid its penetration into the bone. Then, with a metal stick, a thin layer of cyanoacrylate glue (Loctite 401, Henkel, Germany) was applied to the surface of the skull, in order to make the skull transparent. After waiting 10 minutes for the glue to dry, a first layer of acryl was applied on the skull surface with a brush. Acryl was used to prolong the life of the transparency and was prepared by stirring acrylic powder (EUBECOS, Germany) with methacrylate liquid (Densply, Germany) until a nail-polish consistency was reached. After 30 minutes, a second layer of acryl was applied and was left to dry overnight. Finally, the animals were injected s.c. with 5 mg/kg Carprofen (ScanVet, Nord Ireland) for postoperative analgesia and i.p. with a wake-up composed by: 1.2 mg/kg Naloxone (Orpha-Devel Handels und Vertriebs GmbH, Austria), opioid receptor antagonist; 0.5 mg/kg Flumazenil (Hameln, Germany), GABA-A receptor antagonist; 2.5 mg/kg Atipamezole (Vet Medic animal Health Oy, Finland), adrenergic receptor antagonist; diluted in saline (B Braun, Germany). The next day, isoflurane at 4% was used for a couple of minutes to induce the anesthesia and then it was reduced at 2% for the procedure. The acryl layer was polished only on the area of interest, using a hand drill with a polishing bit. […]
Optical imaging. The saturation of haemoglobin in the primary visual cortex of the right hemisphere was measured to assess cortical activity ([Cang et al., 2005]; [Kalatsky and Stryker, 2003]). […]

[8] = system: mice; assay: Object location memory (OLM) test; assay type: in vivo, mouse; settings: wild-type mice, R,R-HNK
Description: Object-location memory (OLM): this test was performed in a square arena (28cm side) with opaque walls containing cues (black stripes or spots). The adult male and female mice (18-22 weeks old) were placed for 3 consecutive days (15min per session) in the arena with two identical objects (table tennis balls glued to caps of 50ml Falcon tubes) in the same position throughout the sessions (pretest).

[9] = molecular target: T1, TRKB; assay: Cell-free ligand binding assay on immobilised TRKB from HEK293T lysates; parameters: wild-type GFP-tagged full length TRKB or the GFP-tagged Y433F TRKB mutant; host or cells: HEK293T; settings: biotinylated R,R-HNK (Figure 2E)

N[C@@]1(c2ccccc2Cl)CCC[C@@H](O)C1=O [R,R-HNK, 2R,6R-hydroxynorketamine]
cell surface localization of GluR1 subunits of AMPA receptors [1]: increased cell surface localization of GluR1 subunits
TRKB interaction with PLC-γ1 [2]: increased TRKB interaction with PLC-γ1
displacement of biotinylated FLX from TRKB [3]: readily displaced
Ki ([3]; read-out: Ki for displacement of biotinylated FLX from TRKB): 2230 nM
increase in surface GluR1 in neurons from TRKB.Y433F mutant mice [4]: prevented
affinity to NMDA receptors [5]: low affinity
affinity to TRKB.Y433F compared with wild-type TRKB [6]: much lower than to the wild-type TRKB
effect on shift in ocular dominance ([7]; TRKB.Y433F mice): lost
shift in ocular dominance after 7-day monocular deprivation ([7]; adult mice, 10 mg/kg i.p. every second day for 8 days): significant shift in OD
effect on shift in ocular dominance ([7]; wild-type mice co-treated with pravastatin): lost
object location memory [8]: improved object location memory
Kd [9]: 1820 nM

— paper PMC7938888, “Antidepressant drugs act by directly binding to TRKB neurotrophin receptors” (Cell, 2021)
